The values that follow are results of earlier work, collected in US6905813B2, “Processing agent for silver halide color photosensitive material and processing method thereof” (Chugai Photo Chemical Co., Ltd., priority 2001, dated 2005).

The mark [1] stands for this setting: Table 1, additives of Example 1.
Setting [2] is: Table 3, additives of Example 2.
[3] abbreviates: Table 7, additives of Example 4.
The mark [4] stands for this setting: Table 5, additives of Example 3.

Read-outs that look alike come from different tables or passages of the source.

For `CC(N)CCN` (centres unmarked) [1,3-diaminobutane], the pKa (in general, the pH at which an ionisable group is half protonated) is, setting by setting: under setting [1], 8.74; under setting [2], 8.74; under setting [3], 8.74.
As to `NCCCCN` [1,4-diaminobutane], the pKa is 9.44 under setting [1], 9.44 under setting [2] and 9.44 under setting [3].
`Nc1ccccn1` [2-aminopyridine]: the pKa under setting [4] is 6.79.
In the case of `O=S([O-])[O-].[Na+].[Na+]` [Sodium sulfite], the pKa is, setting by setting: under setting [1], 7.19; under setting [2], 7.19; under setting [4], 7.19; under setting [3], 7.19.
